Assay results reported in US9145392B2, “Imidazole amines as modulators of kinase activity” (Merck Patent GmbH, priority 2011, dated 2015).

How the values were obtained:
P70S6K (T412E mutant) = P70S6K (T412E mutant) (Homo sapiens (Human), UniProt P23443, T412E); assay: P70S6K enzyme assay; assay type: biochemical; settings: read-out: IC50 p70S6K
How it was run: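 Read-out is the substrate/phosphopeptide ratio from mobility-shift electrophoresis on a LabChip 3000.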

His-AKT (Full Length) = His-AKT (Full Length) (Homo sapiens (Human), UniProt P31749); assay: AKT enzyme assay; assay type: biochemical; settings: read-out: IC50 AKT
Chain of His-AKT (Full Length) (P31749 whole entry): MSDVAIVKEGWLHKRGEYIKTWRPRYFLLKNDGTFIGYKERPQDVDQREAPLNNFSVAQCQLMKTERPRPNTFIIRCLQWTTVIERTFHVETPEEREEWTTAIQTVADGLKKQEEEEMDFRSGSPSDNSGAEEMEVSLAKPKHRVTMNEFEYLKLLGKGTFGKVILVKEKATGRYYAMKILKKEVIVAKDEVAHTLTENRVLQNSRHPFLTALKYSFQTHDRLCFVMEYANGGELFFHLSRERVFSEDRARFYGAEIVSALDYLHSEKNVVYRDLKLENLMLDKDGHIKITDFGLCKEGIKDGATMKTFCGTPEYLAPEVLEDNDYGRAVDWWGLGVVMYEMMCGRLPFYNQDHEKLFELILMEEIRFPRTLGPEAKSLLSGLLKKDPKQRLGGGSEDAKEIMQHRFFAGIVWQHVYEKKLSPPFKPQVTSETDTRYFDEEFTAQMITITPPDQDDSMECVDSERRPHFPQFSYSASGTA

Chain of P70S6K (T412E mutant) (P23443 whole entry T412E): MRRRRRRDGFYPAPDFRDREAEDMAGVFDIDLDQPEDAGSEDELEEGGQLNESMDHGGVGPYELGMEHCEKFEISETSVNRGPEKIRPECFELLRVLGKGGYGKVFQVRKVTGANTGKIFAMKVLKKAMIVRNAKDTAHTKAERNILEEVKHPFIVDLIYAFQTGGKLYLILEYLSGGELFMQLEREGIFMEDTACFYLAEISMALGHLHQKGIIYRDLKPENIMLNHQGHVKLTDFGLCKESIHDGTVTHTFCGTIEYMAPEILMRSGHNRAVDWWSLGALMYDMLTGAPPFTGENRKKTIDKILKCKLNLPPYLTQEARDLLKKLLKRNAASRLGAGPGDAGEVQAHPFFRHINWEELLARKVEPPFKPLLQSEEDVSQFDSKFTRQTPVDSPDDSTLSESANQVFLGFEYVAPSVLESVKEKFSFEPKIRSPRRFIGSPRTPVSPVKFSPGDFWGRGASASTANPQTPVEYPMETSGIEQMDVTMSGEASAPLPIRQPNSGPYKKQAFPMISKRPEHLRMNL

`CC(C)c1cc(-c2cn(CCN3CCC3)c(C3CCN(c4ncnc(N)c4C#N)CC3)n2)ccn1` [Compound 317] gave an IC50 (P70S6K (T412E mutant)) of 1.7 nM and an IC50 (His-AKT (Full Length)) of 11 nM.
Compound `CCc1cc(-c2cn(CCN3CCC3)c(C3CCN(c4ncnc(N)c4C#N)CC3)n2)ccn1` [Compound 318] has an IC50 (P70S6K (T412E mutant)) of 1.4 nM and an IC50 (His-AKT (Full Length)) of 15 nM.
`N#Cc1c(N)ncnc1N1CCC(c2nc(-c3ccnc(C4CC4)c3)cn2CCN2CCC2)CC1` [Compound 319] gave an IC50 (P70S6K (T412E mutant)) of 1.7 nM and an IC50 (His-AKT (Full Length)) of 23 nM.
`Cc1ccc(-c2cn(CCN3CCC3)c(C3CCN(c4ncnc(N)c4C#N)CC3)n2)cc1F` [Compound 320] gave an IC50 (P70S6K (T412E mutant)) of 1.6 nM and an IC50 (His-AKT (Full Length)) of 48 nM.
`COc1ccc(-c2cn(CCN3CCC3)c(C3CCN(c4ncnc(N)c4C#N)CC3)n2)cc1F` [Compound 321] was tested, and the IC50 (P70S6K (T412E mutant)) was 2.6 nM and the IC50 (His-AKT (Full Length)) was 59 nM.
Work on `Cc1ccc(-c2cn(CCN3CCC3)c(C3CCN(c4ncnc(N)c4C#N)CC3)n2)cc1Cl` [Compound 322] yielded an IC50 (P70S6K (T412E mutant)) of 1.3 nM and an IC50 (His-AKT (Full Length)) of 13 nM.
In the case of `COc1ccc(-c2cn(CCN3CCC3)c(C3CCN(c4ncnc(N)c4C#N)CC3)n2)cc1Cl` [Compound 323], the IC50 (P70S6K (T412E mutant)) is reported as 8.3 nM and the IC50 (His-AKT (Full Length)) is reported as 31 nM.
In the case of `Cc1cc(-c2cn(CCN3CCCC3)c(C3CCN(c4ncnc(N)c4C#N)CC3)n2)ccc1F` [Compound 324], the IC50 (P70S6K (T412E mutant)) is reported as 2.8 nM and the IC50 (His-AKT (Full Length)) is reported as 3.5 nM.
In the case of `Cc1cc(-c2cn(CCN(C)C)c(C3CCN(c4ncnc(N)c4C#N)CC3)n2)ccc1F` [Compound 325], the IC50 (P70S6K (T412E mutant)) is reported as 0.5 nM and the IC50 (His-AKT (Full Length)) is reported as 0.9 nM.
Work on `CCN(CC)CCn1cc(-c2ccc(F)c(C)c2)nc1C1CCN(c2ncnc(N)c2C#N)CC1` [Compound 326] yielded an IC50 (P70S6K (T412E mutant)) of 2.7 nM and an IC50 (His-AKT (Full Length)) of 2.5 nM.
In the case of `CCN(CCn1cc(-c2ccc(F)c(C)c2)nc1C1CCN(c2ncnc(N)c2C#N)CC1)C(C)C` [Compound 327], the IC50 (P70S6K (T412E mutant)) is reported as 5.2 nM and the IC50 (His-AKT (Full Length)) is reported as 2.8 nM.
For `NC(=O)c1c(N)ncnc1N1CCC(c2nc(-c3ccc(F)c(F)c3)cn2CCN2CCC2)CC1` [Compound 328], the IC50 (P70S6K (T412E mutant)) was 8.1 nM and the IC50 (His-AKT (Full Length)) was 140 nM.
`NC(=O)c1c(N)ncnc1N1CCC(c2nc(-c3ccc(F)c(F)c3)cn2CCN2CCCC2)CC1` [Compound 329] gave an IC50 (P70S6K (T412E mutant)) of 14 nM and an IC50 (His-AKT (Full Length)) of 120 nM.
In the case of `NC(=O)c1c(N)ncnc1N1CCC(c2nc(-c3ccc(F)c(Cl)c3)cn2CCN2CCCC2)CC1` [Compound 330], the IC50 (P70S6K (T412E mutant)) is reported as 3.6 nM and the IC50 (His-AKT (Full Length)) is reported as 14 nM.
Compound `NC(=O)c1c(N)ncnc1N1CCC(c2nc(-c3ccc(F)c(C(F)(F)F)c3)cn2CCN2CCCC2)CC1` [Compound 331] has an IC50 (P70S6K (T412E mutant)) of 4.6 nM and an IC50 (His-AKT (Full Length)) of 15 nM.
In the case of `CC(C)c1cc(-c2cn(CCN3CCC3)c(C3CCN(c4ncnc(N)c4C(N)=O)CC3)n2)ccn1` [Compound 332], the IC50 (P70S6K (T412E mutant)) is reported as 3.8 nM and the IC50 (His-AKT (Full Length)) is reported as 37 nM.
For `NC(=O)c1c(N)ncnc1N1CCC(c2nc(-c3ccc(F)cc3)cn2CCN2CCCC2)CC1` [Compound 333], the IC50 (P70S6K (T412E mutant)) was 21 nM and the IC50 (His-AKT (Full Length)) was 380 nM.
With `NC(=O)c1c(N)ncnc1N1CCC(c2nc(-c3cccc(F)c3)cn2CCN2CCCC2)CC1` [Compound 334] the IC50 (P70S6K (T412E mutant)) was 26 nM and the IC50 (His-AKT (Full Length)) was 620 nM.
`NC(=O)c1c(N)ncnc1N1CCC(c2nc(-c3cccc(C(F)(F)F)c3)cn2CCN2CCCC2)CC1` [Compound 335] showed an IC50 (P70S6K (T412E mutant)) of 13 nM and an IC50 (His-AKT (Full Length)) of 92 nM.
Work on `NC(=O)c1c(N)ncnc1N1CCC(c2nc(-c3cccc(Cl)c3)cn2CCN2CCCC2)CC1` [Compound 336] yielded an IC50 (P70S6K (T412E mutant)) of 7.6 nM and an IC50 (His-AKT (Full Length)) of 76 nM.
With `NC(=O)c1c(N)ncnc1N1CCC(c2nc(-c3ccc(F)c(C(F)(F)F)c3)cn2CCN2CCCCC2)CC1` [Compound 337] the IC50 (P70S6K (T412E mutant)) was 3.5 nM and the IC50 (His-AKT (Full Length)) was 11 nM.
`NC(=O)c1c(N)ncnc1N1CCC(c2nc(-c3ccc(F)c(OC(F)F)c3)cn2CCN2CCC2)CC1` [Compound 338] gave an IC50 (P70S6K (T412E mutant)) of 2 nM and an IC50 (His-AKT (Full Length)) of 29 nM.
Work on `NC(=O)c1c(N)ncnc1N1CCC(c2nc(-c3cc[nH]c(=O)c3)cn2CCN2CCC2)CC1` [Compound 339] yielded an IC50 (P70S6K (T412E mutant)) of 2700 nM and an IC50 (His-AKT (Full Length)) of 5800 nM.
Compound `Cc1ccc(-c2cn(CCN3CCC3)c(C3CCN(c4ncnc(N)c4C(N)=O)CC3)n2)cc1C(F)(F)F` [Compound 340] has an IC50 (P70S6K (T412E mutant)) of 4 nM and an IC50 (His-AKT (Full Length)) of 420 nM.
For `CCc1cc(-c2cn(CCN3CCC3)c(C3CCN(c4ncnc(N)c4C(N)=O)CC3)n2)ccn1` [Compound 341], the IC50 (P70S6K (T412E mutant)) was 11 nM and the IC50 (His-AKT (Full Length)) was 450 nM.
Compound `NC(=O)c1c(N)ncnc1N1CCC(c2nc(-c3ccnc(C4CC4)c3)cn2CCN2CCC2)CC1` [Compound 342] has an IC50 (P70S6K (T412E mutant)) of 3.7 nM and an IC50 (His-AKT (Full Length)) of 61 nM.
`CC(C)(C)c1cc(-c2cn(CCN3CCC3)c(C3CCN(c4ncnc(N)c4C(N)=O)CC3)n2)ccn1` [Compound 343] showed an IC50 (P70S6K (T412E mutant)) of 5.5 nM and an IC50 (His-AKT (Full Length)) of 170 nM.
`Cc1ccc(-c2cn(CCN3CCC3)c(C3CCN(c4ncnc(N)c4C(N)=O)CC3)n2)cc1F` [Compound 344] gave an IC50 (P70S6K (T412E mutant)) of 25 nM and an IC50 (His-AKT (Full Length)) of 2400 nM.
In the case of `COc1ccc(-c2cn(CCN3CCC3)c(C3CCN(c4ncnc(N)c4C(N)=O)CC3)n2)cc1F` [Compound 345], the IC50 (P70S6K (T412E mutant)) is reported as 100 nM and the IC50 (His-AKT (Full Length)) is reported as 13000 nM.
Compound `Cc1ccc(-c2cn(CCN3CCC3)c(C3CCN(c4ncnc(N)c4C(N)=O)CC3)n2)cc1Cl` [Compound 346] has an IC50 (P70S6K (T412E mutant)) of 3.9 nM and an IC50 (His-AKT (Full Length)) of 220 nM.
`COc1ccc(-c2cn(CCN3CCC3)c(C3CCN(c4ncnc(N)c4C(N)=O)CC3)n2)cc1Cl` [Compound 347] gave an IC50 (P70S6K (T412E mutant)) of 87 nM and an IC50 (His-AKT (Full Length)) of 990 nM.
For `Cc1cc(-c2cn(CCN(C)C)c(C3CCN(c4ncnc(N)c4C(N)=O)CC3)n2)ccc1F` [Compound 348], the IC50 (P70S6K (T412E mutant)) was 4 nM and the IC50 (His-AKT (Full Length)) was 32 nM.
`CCN(CC)CCn1cc(-c2ccc(F)c(C)c2)nc1C1CCN(c2ncnc(N)c2C(N)=O)CC1` [Compound 349] showed an IC50 (P70S6K (T412E mutant)) of 25 nM and an IC50 (His-AKT (Full Length)) of 55 nM.
Work on `Cc1cc(-c2cn(CCN3CCCC3)c(C3CCN(c4ncnc(N)c4C(N)=O)CC3)n2)ccc1F` [Compound 350] yielded an IC50 (P70S6K (T412E mutant)) of 2.3 nM and an IC50 (His-AKT (Full Length)) of 10 nM.
With `CCN(CCn1cc(-c2ccc(F)c(C)c2)nc1C1CCN(c2ncnc(N)c2C(N)=O)CC1)C(C)C` [Compound 351] the IC50 (P70S6K (T412E mutant)) was 27 nM and the IC50 (His-AKT (Full Length)) was 48 nM.
`CCc1c(N)ncnc1N1CCC(c2nc(-c3cnc(N(C)C)nc3)cn2CCN2CCC2)CC1` [Compound 352, 6-{4-[1-(2-Azetidin-1-yl-ethyl)-4-(2-dimethylamino-pyrimidin-5-yl)-1H-imidazol-2-yl]-piperidin-1-yl}-5-ethyl-pyrimidin-4-ylamine] showed an IC50 (P70S6K (T412E mutant)) of 310 nM and an IC50 (His-AKT (Full Length)) of 5700 nM.
Work on `N#Cc1c(N)ncnc1N1CCC(c2nc(-c3ccccc3F)cn2CCN2CCC2)CC1` [Compound 353, 4-Amino-6-{4-[1-(2-azetidin-1-yl-ethyl)-4-(2-fluoro-phenyl)-1H-imidazol-2-yl]-piperidin-1-yl}-pyrimidine-5-carbonitrile] yielded an IC50 (P70S6K (T412E mutant)) of 14 nM and an IC50 (His-AKT (Full Length)) of 140 nM.
In the case of `N#Cc1c(N)ncnc1N1CCC(c2nc(-c3cccc(S(N)(=O)=O)c3)cn2CCN2CCC2)CC1` [Compound 354, 3-[2-[1-(6-Amino-5-cyano-pyrimidin-4-yl)-piperidin-4-yl]-1-(2-azetidin-1-yl-ethyl)-1H-imidazol-4-yl]-benzenesulfonamide], the IC50 (P70S6K (T412E mutant)) is reported as > 10000 nM and the IC50 (His-AKT (Full Length)) is reported as > 10000 nM.
`CS(=O)(=O)c1cccc(-c2cn(CCN3CCC3)c(C3CCN(c4ncnc(N)c4C#N)CC3)n2)c1` [Compound 355, 4-Amino-6-{4-[1-(2-azetidin-1-yl-ethyl)-4-(3-methanesulfonyl-phenyl)-1H-imidazol-2-yl]-piperidin-1-yl}-pyrimidine-5-carbonitrile] was tested, and the IC50 (P70S6K (T412E mutant)) was 17 nM and the IC50 (His-AKT (Full Length)) was 80 nM.
